# Measured values as given in patent publication US20230025327A1, “CONJUGATES OF TUBULYSIN DERIVATIVES AND CELL BINDING MOLECULES AND METHODS OF MAKING” (Hangzhou DAC Biotech Co., Ltd., priority 2019, published 2023).
# Test system: NCI-N87, a human gastric carcinoma cell line
# Conditions: read-out: IC50 of NCI-N87 cells, 120 hours incubation, MTT
# Description: The inhibition % was calculated according to the following equation: inhibition %=[1-(assay-blank)/(control-blank)]×100.
substance,measurement,value
T-DM1,IC50,0.32 nM
